Patent US12624044B2, “SMARCA degraders and uses thereof” (Kymera Therapeutics, Inc., priority 2019, dated 2026)

How the values were obtained:
Assay type in all cases: cell-based
SMARCA4 = biological target: T1, SMARCA4 (Homo sapiens, UniProt P51532); experiment: SMARCA4 Western blot MV4-11 degradation; conditions: 24 h; for Dmax: MV4-11, MV4-11 cells, read-out: SMARCA4 WB MV411 degradation 24 h: Average Dmax %; for DC50: MV4-11 cells, read-out: SMARCA4 WB MV411 degradation 24 h: Average external-Abs DC50
T1 construct: SMARCA2 and SMARCA4 protein degradation in MV4-11 cells; endogenous in cells; host or cells: MV4-11
T1 sequence (P51532 whole entry): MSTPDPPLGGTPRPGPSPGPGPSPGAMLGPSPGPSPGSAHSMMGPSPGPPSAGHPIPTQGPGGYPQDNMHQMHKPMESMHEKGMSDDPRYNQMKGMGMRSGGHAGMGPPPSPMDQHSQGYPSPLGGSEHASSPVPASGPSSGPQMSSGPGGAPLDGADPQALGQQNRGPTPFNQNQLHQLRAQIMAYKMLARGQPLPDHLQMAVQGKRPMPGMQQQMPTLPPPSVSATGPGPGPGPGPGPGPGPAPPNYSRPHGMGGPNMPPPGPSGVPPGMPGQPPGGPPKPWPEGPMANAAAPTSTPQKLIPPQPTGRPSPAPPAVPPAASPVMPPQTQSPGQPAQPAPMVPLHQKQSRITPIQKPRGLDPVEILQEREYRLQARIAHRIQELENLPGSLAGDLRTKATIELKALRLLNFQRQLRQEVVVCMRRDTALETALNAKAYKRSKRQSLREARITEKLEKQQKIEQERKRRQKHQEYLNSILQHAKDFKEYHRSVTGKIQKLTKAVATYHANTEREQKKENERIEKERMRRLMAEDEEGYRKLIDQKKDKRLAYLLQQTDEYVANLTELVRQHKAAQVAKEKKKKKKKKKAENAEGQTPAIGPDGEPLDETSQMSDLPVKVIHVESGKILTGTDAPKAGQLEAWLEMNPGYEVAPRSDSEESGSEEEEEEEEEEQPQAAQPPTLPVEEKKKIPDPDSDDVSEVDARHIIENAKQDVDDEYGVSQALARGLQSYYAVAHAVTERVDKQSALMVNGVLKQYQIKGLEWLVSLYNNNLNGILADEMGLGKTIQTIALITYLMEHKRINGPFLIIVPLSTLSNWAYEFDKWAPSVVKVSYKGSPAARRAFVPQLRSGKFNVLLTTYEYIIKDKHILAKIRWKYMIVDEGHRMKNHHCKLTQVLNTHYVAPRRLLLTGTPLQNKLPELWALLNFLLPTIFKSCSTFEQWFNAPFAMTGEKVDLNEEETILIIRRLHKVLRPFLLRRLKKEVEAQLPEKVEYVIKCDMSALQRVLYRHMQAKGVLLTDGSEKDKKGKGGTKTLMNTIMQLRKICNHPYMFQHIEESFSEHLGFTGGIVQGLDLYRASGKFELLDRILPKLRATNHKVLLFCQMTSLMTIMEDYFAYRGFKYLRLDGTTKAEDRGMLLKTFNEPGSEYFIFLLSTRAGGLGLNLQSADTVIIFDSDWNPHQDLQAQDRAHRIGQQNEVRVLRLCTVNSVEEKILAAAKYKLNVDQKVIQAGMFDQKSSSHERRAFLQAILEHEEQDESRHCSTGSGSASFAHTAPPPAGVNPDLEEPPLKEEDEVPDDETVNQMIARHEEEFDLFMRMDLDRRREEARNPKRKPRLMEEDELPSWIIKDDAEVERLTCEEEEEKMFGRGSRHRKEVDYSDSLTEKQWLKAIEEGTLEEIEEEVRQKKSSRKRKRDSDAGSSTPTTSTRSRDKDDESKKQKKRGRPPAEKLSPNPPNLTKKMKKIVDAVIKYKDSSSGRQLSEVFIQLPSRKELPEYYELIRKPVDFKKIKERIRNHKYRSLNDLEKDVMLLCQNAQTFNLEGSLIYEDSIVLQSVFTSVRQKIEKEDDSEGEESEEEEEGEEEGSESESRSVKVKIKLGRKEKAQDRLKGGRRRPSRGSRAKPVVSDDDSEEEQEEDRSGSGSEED
In short: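 MV4-11 cells treated with compound for 24 h, lysed in RIPA with protease/phosphatase inhibitors, and SMARCA2 and SMARCA4 (BRG1) levels assessed by Western blot with β-actin loading control and LI-COR fluorescent read-out. Maximal degradation (Dmax %) after 24 h binned into letter codes.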

SMARCA2 [1] = biological target: T2, SMARCA2 (Homo sapiens, UniProt P51531); experiment: SMARCA2 Western blot MV4-11 degradation; conditions: 24 h; for Dmax: MV4-11, MV4-11 cells, read-out: SMARCA2 WB MV411 degradation 24 h: Average Dmax %; for DC50: MV4-11 cells, read-out: SMARCA2 WB MV411 degradation 24 h: Average external-Abs DC50
T2 sequence (P51531 whole entry): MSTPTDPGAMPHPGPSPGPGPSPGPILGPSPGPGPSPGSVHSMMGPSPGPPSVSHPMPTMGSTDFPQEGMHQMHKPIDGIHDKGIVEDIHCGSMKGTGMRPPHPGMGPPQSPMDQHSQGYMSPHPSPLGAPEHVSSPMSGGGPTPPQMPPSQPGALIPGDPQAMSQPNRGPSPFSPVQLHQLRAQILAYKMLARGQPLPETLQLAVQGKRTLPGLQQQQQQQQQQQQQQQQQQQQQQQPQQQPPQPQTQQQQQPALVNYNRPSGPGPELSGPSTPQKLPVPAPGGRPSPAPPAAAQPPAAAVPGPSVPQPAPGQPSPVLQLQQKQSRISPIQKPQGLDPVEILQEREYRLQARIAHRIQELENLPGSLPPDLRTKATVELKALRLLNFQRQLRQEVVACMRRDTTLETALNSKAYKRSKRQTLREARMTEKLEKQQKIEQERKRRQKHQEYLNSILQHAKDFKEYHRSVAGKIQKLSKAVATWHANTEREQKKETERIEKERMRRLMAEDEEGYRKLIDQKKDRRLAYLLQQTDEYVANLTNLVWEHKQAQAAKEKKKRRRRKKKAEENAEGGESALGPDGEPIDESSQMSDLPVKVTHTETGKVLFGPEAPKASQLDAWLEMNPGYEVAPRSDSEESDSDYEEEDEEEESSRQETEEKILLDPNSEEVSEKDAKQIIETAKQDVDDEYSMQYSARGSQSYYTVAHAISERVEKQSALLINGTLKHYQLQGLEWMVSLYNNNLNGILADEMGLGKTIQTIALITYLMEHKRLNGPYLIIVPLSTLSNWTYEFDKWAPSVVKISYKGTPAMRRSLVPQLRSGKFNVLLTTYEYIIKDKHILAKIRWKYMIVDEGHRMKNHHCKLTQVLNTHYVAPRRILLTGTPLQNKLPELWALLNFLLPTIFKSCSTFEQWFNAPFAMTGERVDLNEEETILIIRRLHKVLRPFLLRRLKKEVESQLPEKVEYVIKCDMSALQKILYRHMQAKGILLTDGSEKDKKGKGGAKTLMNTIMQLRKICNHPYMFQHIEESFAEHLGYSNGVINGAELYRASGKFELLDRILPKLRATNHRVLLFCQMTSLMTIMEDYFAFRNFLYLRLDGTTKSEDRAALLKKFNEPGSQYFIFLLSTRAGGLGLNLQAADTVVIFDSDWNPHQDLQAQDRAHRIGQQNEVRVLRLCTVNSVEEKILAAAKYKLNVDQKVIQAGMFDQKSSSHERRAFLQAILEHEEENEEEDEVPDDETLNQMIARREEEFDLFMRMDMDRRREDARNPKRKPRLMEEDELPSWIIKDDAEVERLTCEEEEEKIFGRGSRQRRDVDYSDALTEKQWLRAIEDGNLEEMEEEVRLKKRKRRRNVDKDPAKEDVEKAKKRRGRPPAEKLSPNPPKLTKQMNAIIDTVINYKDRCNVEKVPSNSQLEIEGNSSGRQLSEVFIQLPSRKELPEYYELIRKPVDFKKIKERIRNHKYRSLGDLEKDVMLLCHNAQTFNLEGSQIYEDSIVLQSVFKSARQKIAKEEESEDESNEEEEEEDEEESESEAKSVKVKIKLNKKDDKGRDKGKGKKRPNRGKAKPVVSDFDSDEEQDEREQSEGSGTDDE
Description: Cells were seeded into 6-well plates (MV4-11: 4×10^6 cells/well/1 ml) and 1 ml of 2× compound solution was added into the well to make the final concentration and the plates were mixed well and incubated for 24 hours (No cytotoxicity was observed). The cell were collected with media and spun at 3000 rpm for 5 minutes. The supernatant was aspirated and the well and the cells were washed with cold PBS once and combined for centrifugation again; the supernatant aspirated again. 200 ul pre-chilled RIPAlysis buffer (Boston BioProducts BP-115D) with protease/phosphatase inhibitor (Roche 05892791001/Roche 04906837001) was directly added into the tube to lyze the cells for 20 minutes on ice. The cell lysate were collected into EP tubes and spun at 13000 rpm for 20 minutes and 72 ul supernatant was transferred to a fresh EP tube containing 18 ul of 5× loading buffer (Beyotime Bio P0015) to make the loading samples. The samples were heated to 100° C. for 10 minutes and cooled to RT and microcentrifuged. 20 ul of samples were loaded onto SDS-PAGE gel (Novex, WG1402BOX) and the gel was run at 80 V for 20 minutes and 120 V for 1.5 hours. The samples were electrotransfer to a NC membrane using wet-transfer method with 250 mA for 2.5 hours. The membrane was blocked with LICOR blocking buffer (LI-COR, 927-50000) for 1 hour. The membrane was washed three times with TBST (CST #9997S), 5 minutes each. Incubation was performed with primary antibody prepared in blocking buffer with 0.1% Tween-20 (Solarbio, P8220) at 4° C. overnight (Anti-SMARCA2/BRM antibody (ab15597) 1:500; Anti-BRG1 antibody [EPR3912] (ab108318) 1:1000; Rabbit anti-Baf180 antibody [EPR15860] (Abcam, ab196022) 1:1000; mouse anti-beta-Actin (8H10D10) (CST #3700) 1:10000). The membrane was washed three times with TBST, 5 minutes each. Incubation with secondary antibody was performed for 1 hour at RT (anti-rabbit IgG (Licor, 926-32211) 1:5000; anti-mouse IgG (LI-COR, 926-68070) 1:5000). The membrane was washed three times with TBST, 5 minutes each and lastly the LiCOR was read.
The letter codes for the percentage of SMARCA degradation after 24 hours (Dmax %) include: A (>90% degradation), B (>70-90% degradation), C (50-70% degradation), and D (<50% degradation).

SMARCA2 [2] = biological target: T2, SMARCA2; experiment: MSD SMARCA2 degradation in A549 cell line; conditions: 24 h; for Dmax: A549, A549 cells; for DC50: A549 cells, read-out: SMARCA2 MSD A549 degradation 24 h: Average external-Abs DC50
In short: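 SMARCA2 remaining was measured by MSD electrochemiluminescence on RIPA lysates (anti-SMARCA2 plus SULFO-TAG anti-rabbit). Prior exposure: 24 h of A549 cells to a 10-point, 3-fold dilution series topping at 1000 nM final; Dmax % given as graded codes.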

SMARCA2 [3] = biological target: T2, SMARCA2; experiment: MSD SMARCA2 degradation in NCI-H1299 cell line (24 h); parameters: HC: NCI-H1299 cells treated with DMSO; host or cells: NCI-H1299
In short: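 SMARCA2 measured by MSD electrochemiluminescence (primary 0.3 ug/ml, secondary 1 ug/ml) on lysates from NCI-H1299 cells exposed to compounds for 24 h across nine 3-fold dilutions. Signal scaled from A2780 cells (no SMARCA2) to DMSO-treated H1299 controls, and maximal degradation after 24 h reported in letter categories.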

Cc1ncsc1-c1ccc(CNC(=O)[C@@H]2C[C@@H](O)CN2C(=O)[C@@H](NC(=O)CN2CCN([C@H]3CC[C@@H](c4cnc(N5C6CCC5CN(c5cc(-c7ccccc7O)nnc5N)C6)nc4)CC3)CC2)C(C)(C)C)cc1 (single isomer, unassigned) [I-445]
Dmax (SMARCA4): > 90%
DC50 (SMARCA4): < 100 nM
Dmax (SMARCA2 [1]): > 90%
DC50 (SMARCA2 [1]): < 100 nM
Dmax (SMARCA2 [2]): > 90%
DC50 (SMARCA2 [2]): 100 to 500 nM

Cc1ncsc1-c1ccc(CNC(=O)[C@@H]2C[C@@H](O)CN2C(=O)[C@@H](NC(=O)CN2CCN([C@H]3CC[C@H](c4cnc(N5C6CCC5CN(c5cc(-c7ccccc7O)nnc5N)C6)nc4)CC3)CC2)C(C)(C)C)cc1 (single isomer, unassigned) [I-446, (2S,4R)-1-((2S)-2-(2-(4-((1r,4S)-4-(2-(3-(3-amino-6-(2-hydroxyphenyl)pyridazin-4-yl)-3,8-diazabicyclo[3.2.1]octan-8-yl)pyrimidin-5-yl)cyclohexyl)piperazin-1-yl)acetamido)-3,3-dimethylbutanoyl)-4-hydroxy-N-(4-(4-methylthiazol-5-yl)benzyl)pyrrolidine-2-carboxamide]
Dmax (SMARCA4): > 90%
Dmax (SMARCA2 [1]): > 90%
Dmax (SMARCA2 [2]): > 90%

Cc1ncsc1-c1ccc(CNC(=O)[C@@H]2C[C@@H](O)CN2C(=O)[C@@H](NC(=O)CN2CCN([C@H]3CC[C@H](c4cnc(N5C6CCC5CN(c5cc(-c7ccccc7O)nnc5N)C6)nc4)CC3)CC2)C(C)(C)C)cc1 (single isomer, unassigned) [I-446]
DC50 (SMARCA4): < 100 nM
DC50 (SMARCA2 [1]): < 100 nM
DC50 (SMARCA2 [2]): < 100 nM

Cn1c(=O)n(C2CCC(=O)NC2=O)c2ccc(C3CC4(C3)CC(N3CCC(c5cnc(N6C7CCC6CN(c6cc(-c8ccccc8O)nnc6N)C7)nc5)CC3)C4)cc21 (single isomer, unassigned) [I-536 (P1), 3-(5-(6-(4-(2-(3-(3-amino-6-(2-hydroxyphenyl)pyridazin-4-yl)-3,8-diazabicyclo[3.2.1]octan-8-yl)pyrimidin-5-yl)piperidin-1-yl)spiro[3.3]heptan-2-yl)-3-methyl-2-oxo-2,3-dihydro-1H-benzo[d]imidazol-1-yl)piperidine-2,6-dione]
DC50 (SMARCA4): < 100 nM
DC50 (SMARCA2 [1]): < 100 nM
DC50 (SMARCA2 [2]): < 100 nM

Cn1c(=O)n(C2CCC(=O)NC2=O)c2ccc([C@H]3CC[C@@H](N4CCC(c5cnc(N6C7CCC6CN(c6cc(-c8ccccc8O)nnc6N)C7)nc5)CC4)CC3)cc21 (stereo partly shown) [I-277]
Dmax (SMARCA4): > 90%
DC50 (SMARCA4): < 100 nM
Dmax (SMARCA2 [1]): > 90%
DC50 (SMARCA2 [1]): < 100 nM
Dmax (SMARCA2 [2]): > 90%
DC50 (SMARCA2 [2]): < 100 nM

Cn1c(=O)n(C2CCC(=O)NC2=O)c2ccc([C@H]3CC[C@H](N4CCC(c5cnc(N6C7CCC6CN(c6cc(-c8ccccc8O)nnc6N)C7)nc5)CC4)CC3)cc21 (stereo partly shown) [I-291]
Dmax (SMARCA4): > 90%
DC50 (SMARCA4): < 100 nM
DC50 (SMARCA2 [1]): < 100 nM
Dmax (SMARCA2 [2]): > 90%
DC50 (SMARCA2 [2]): < 100 nM

Cn1c(=O)n(C2CCC(=O)NC2=O)c2cccc(C3CCC(N4CCC(n5cc(-c6cc(-c7ccccc7O)nnc6N)cn5)CC4)CC3)c21 (stereo not shown) [I-321]
Dmax (SMARCA4): > 90%
DC50 (SMARCA4): < 100 nM
Dmax (SMARCA2 [1]): > 90%
DC50 (SMARCA2 [1]): < 100 nM
Dmax (SMARCA2 [2]): > 90%
DC50 (SMARCA2 [2]): < 100 nM

Cc1ncsc1-c1ccc(CNC(=O)[C@@H]2C[C@@H](O)CN2C(=O)[C@@H](NC(=O)C2CCC(CN3CCC(n4cc(-c5cc(-c6ccccc6O)nnc5N)cn4)CC3)CC2)C(C)(C)C)cc1 (stereo partly shown) [I-327]
Dmax (SMARCA4): < 50%
DC50 (SMARCA4): > 1000 nM
Dmax (SMARCA2 [1]): > 90%
DC50 (SMARCA2 [1]): < 100 nM
Dmax (SMARCA2 [2]): > 90%
DC50 (SMARCA2 [2]): 100 to 500 nM

Cc1ncsc1-c1ccc(CNC(=O)[C@@H]2C[C@@H](O)CN2C(=O)[C@@H](NC(=O)[C@H]2C[C@@H](N3CCC(c4cnc(N5C6CCC5CN(c5cc(-c7ccccc7O)nnc5N)C6)nc4)CC3)C2)C(C)(C)C)cc1 [I-349]
Dmax (SMARCA4): < 50%
DC50 (SMARCA4): 501 to 1000 nM
Dmax (SMARCA2 [1]): 70 to 90%
DC50 (SMARCA2 [1]): < 100 nM
Dmax (SMARCA2 [2]): > 90%
DC50 (SMARCA2 [2]): 100 to 500 nM

Cc1ncsc1-c1ccc(CNC(=O)[C@@H]2C[C@@H](O)CN2C(=O)[C@@H](NC(=O)CN2CCN(C3CCC(c4cnc(N5C6CCC5CN(c5cc(-c7ccccc7O)nnc5N)C6)nc4)CC3)CC2)C(C)(C)C)cc1 (stereo partly drawn) [I-354, (2S,4R)-1-((2S)-2-(2-(4-(4-(2-(3-(3-amino-6-(2-hydroxyphenyl)pyridazin-4-yl)-3,8-diazabicyclo[3.2.1]octan-8-yl)pyrimidin-5-yl)cyclohexyl)piperazin-1-yl)acetamido)-3,3-dimethylbutanoyl)-4-hydroxy-N-(4-(4-methylthiazol-5-yl)benzyl)pyrrolidine-2-carboxamide]
Dmax (SMARCA4): > 90%
DC50 (SMARCA4): < 100 nM
Dmax (SMARCA2 [1]): > 90%
DC50 (SMARCA2 [1]): < 100 nM
Dmax (SMARCA2 [2]): > 90%
DC50 (SMARCA2 [2]): < 100 nM

Cc1ncsc1-c1ccc(CNC(=O)[C@@H]2C[C@@H](O)CN2C(=O)[C@@H](NC(=O)[C@H]2CC[C@H](Cc3cnc(N4C5CCC4CN(c4cc(-c6ccccc6O)nnc4N)C5)nc3)CC2)C(C)(C)C)cc1 [I-366, (2S,4R)-1-((2S)-2-((1r,4S)-4-((2-(3-(3-amino-6-(2-hydroxyphenyl)pyridazin-4-yl)-3,8-diazabicyclo[3.2.1]octan-8-yl)pyrimidin-5-yl)methyl)cyclohexane-1-carboxamido)-3,3-dimethylbutanoyl)-4-hydroxy-N-(4-(4-methylthiazol-5-yl)benzyl) pyrrolidine-2-carboxamide]
Dmax (SMARCA4): > 90%
DC50 (SMARCA4): < 100 nM
Dmax (SMARCA2 [1]): > 90%
DC50 (SMARCA2 [1]): < 100 nM
Dmax (SMARCA2 [2]): > 90%
DC50 (SMARCA2 [2]): < 100 nM

Cc1ncsc1-c1ccc(CNC(=O)[C@@H]2C[C@@H](O)CN2C(=O)[C@@H](NC(=O)[C@H]2CC3(C2)C[C@H](c2cnc(N4C5CCC4CN(c4cc(-c6ccccc6O)nnc4N)C5)nc2)C3)C(C)(C)C)cc1 (stereo partly shown) [I-368]
Dmax (SMARCA4): > 90%
DC50 (SMARCA4): < 100 nM
Dmax (SMARCA2 [1]): > 90%
DC50 (SMARCA2 [1]): < 100 nM
Dmax (SMARCA2 [2]): > 90%
DC50 (SMARCA2 [2]): < 100 nM

NCC#Cc1nccc(N2C3CCC2CN(c2cc(-c4ccccc4O)nnc2N)C3)n1 [I-534, 2-[6-amino-5-[8-[2-(3-aminoprop-1-ynyl)pyrimidin-4-yl]-3,8-diazabicyclo[3.2.1]octan-3-yl]pyridazin-3-yl]phenol]
Dmax (SMARCA4): 70 to 90%
DC50 (SMARCA4): > 1000 nM
Dmax (SMARCA2 [3]; NCI-H1299, NCI-H1299 cells): > 90%
DC50 (SMARCA2 [3]; NCI-H1299 cells, read-out: SMARCA2 MSD H1299 degradation 24 h: External Abs-DC50): 100 to 500 nM
Dmax (SMARCA2 [2]): < 50%
DC50 (SMARCA2 [2]): > 1000 nM

CC(C)(C)[C@H](NC(=O)[C@H]1CC2(C1)C[C@H](N1CCC(c3cnc(N4C5CCC4CN(c4cc(-c6ccccc6O)nnc4N)C5)nc3)CC1)C2)C(=O)N1C[C@H](O)C[C@H]1C(=O)NOc1ccc(-c2ccccc2F)cc1 (stereo partly drawn) [I-537, (2S,4R)-1-[(2S)-2-[[2-[4-[2-[3-[3-amino-6-(2-hydroxyphenyl)pyridazin-4-yl]-3,8-diazabicyclo[3.2.1]octan-8-yl]pyrimidin-5-yl]-1-piperidyl]spiro[3.3]heptane-6-carbonyl]amino]-3,3-dimethyl-butanoyl]-N-[4-(2-fluorophenyl)phenoxy]-4-hydroxy-pyrrolidine-2-carboxamide]
DC50 (SMARCA2 [1]): > 1000 nM
DC50 (SMARCA2 [2]): > 1000 nM
